In patent publication US11098041B2 (Merck Patent GmbH, priority 2014, dated 2021):

Experiments:
full-length human BTK = full-length human BTK (Homo sapiens (Human), UniProt Q06187); experiment: Assay A: microfluidic off-chip mobility shift assay against BTK enzyme; type: biochemical
[1] = molecular target: BTK C481S (His-TEV-hsBTK(328-659)(C481S)) (Homo sapiens (Human), UniProt Q06187, C481S); experiment: Assay B: microfluidic off-chip mobility shift assay against BTK C481S enzyme; type: biochemical; details: BTK C481S mutant
In short: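 Substrate-to-phosphopeptide conversion quantified by microfluidic mobility shift with laser-induced fluorescence; IC50 and efficacy from log[inhibitor] vs. % activity.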

[2] = system: anti-IgM-induced expression of CD69 on CD19 positive cells (B cells) in human PBMCs; experiment: Assay C: PBMC IC50 assay (anti-IgM-induced CD69 expression); type: cell-based; details: anti-IgM stimulation
Protocol: Btk is critical for mediating the signalling of B cell antigen receptor (BCR) after anti-IgM stimulation. Based on this principle, a functional cell-based assay was established to determine the potency of compounds at inhibiting anti-IgM-induced expression of CD69, a downstream BCR signaling event, in freshly isolated human peripheral blood mononuclear cells (PBMCs). In the assay, a 90 μl PBMC suspension containing 2.5×10^5 cells was pre-treated with 10 μl of test compound at various concentrations for an hour, and then incubated overnight (approximately 16-18 hours) with 5 μl 420 μg/ml affiniPure F(ab′)2 fragment goat anti-human IgM Fc fragment per well (Dianova, Cat. No.: 109-006-129). After the incubation, the cells were washed and immunostained with an APC-labeled mouse anti-human CD69 (BD Biosciences; clone: FN50), a PerCP-Cy5.5 labelled mouse anti-human CD19 (BD Biosciences; clone: SJ25C1) and a FITC-labelled mouse anti-human CD3 (BD Biosciences; clone: HIT3a), and fixed for flow cytometric analysis of CD69 expression on CD19 positive cells (B cells). The percentage of CD69 expressing CD19 positive cells was plotted against the concentrations of test compounds to obtain a concentration response curve, and calculate an IC50 value as a measure of the potency of test compounds in the assay.

Chain of BTK C481S (His-TEV-hsBTK(328-659)(C481S)) (Q06187 328-659 C481S): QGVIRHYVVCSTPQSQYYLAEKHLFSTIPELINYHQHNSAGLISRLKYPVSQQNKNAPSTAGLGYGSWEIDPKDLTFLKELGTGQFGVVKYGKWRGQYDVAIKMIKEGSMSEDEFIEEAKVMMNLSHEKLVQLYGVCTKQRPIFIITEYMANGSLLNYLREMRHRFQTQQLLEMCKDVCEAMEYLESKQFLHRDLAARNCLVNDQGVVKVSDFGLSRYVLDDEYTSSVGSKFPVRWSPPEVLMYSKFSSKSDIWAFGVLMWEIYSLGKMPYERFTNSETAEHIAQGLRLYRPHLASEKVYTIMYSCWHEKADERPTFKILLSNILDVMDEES
Chain of full-length human BTK (Q06187 whole entry): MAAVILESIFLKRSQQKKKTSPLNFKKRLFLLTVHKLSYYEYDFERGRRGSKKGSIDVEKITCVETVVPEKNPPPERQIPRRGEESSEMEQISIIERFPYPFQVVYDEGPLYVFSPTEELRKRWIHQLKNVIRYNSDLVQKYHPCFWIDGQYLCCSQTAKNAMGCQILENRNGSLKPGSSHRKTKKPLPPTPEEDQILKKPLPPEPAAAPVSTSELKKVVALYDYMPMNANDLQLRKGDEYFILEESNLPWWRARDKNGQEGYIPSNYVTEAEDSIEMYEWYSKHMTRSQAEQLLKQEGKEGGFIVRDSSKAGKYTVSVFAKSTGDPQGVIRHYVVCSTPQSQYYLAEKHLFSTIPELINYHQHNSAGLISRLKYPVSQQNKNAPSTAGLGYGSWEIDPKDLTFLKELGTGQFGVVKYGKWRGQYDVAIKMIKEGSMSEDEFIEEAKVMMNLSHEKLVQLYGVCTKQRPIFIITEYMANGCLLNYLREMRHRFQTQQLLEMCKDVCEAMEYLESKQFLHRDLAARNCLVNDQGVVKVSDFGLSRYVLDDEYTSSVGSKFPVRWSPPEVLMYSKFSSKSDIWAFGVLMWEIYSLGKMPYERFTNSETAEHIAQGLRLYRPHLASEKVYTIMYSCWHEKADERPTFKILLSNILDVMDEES

Row | SMILES | IC50 (full-length human BTK) | IC50 [1] | IC50 [2]
1 | Cn1cc(-c2nc3c(-c4ccc(CNC(=O)c5noc(C(C)(C)N)n5)c(F)c4)ccnc3[nH]2)cn1 [Example 58, 5-(2-Aminopropan-2-yl)-N-([2-fluoro-4-[2-(1-methyl-1H-pyrazol-4-yl)-3H-imidazo[4,5-b]pyridin-7-yl]phenyl]methyl)-1,2,4-oxadiazole-3-carboxamide] | < 100 nM | < 100 nM | 1000 to 5000 nM
2 | COc1ccc(-c2nc3c(-c4ccc(CNC(=O)c5ccc(C6CC6)cc5)c(F)c4)ccnc3[nH]2)cc1 [Example 63, 4-Cyclopropyl-N-([2-fluoro-4-[2-(4-methoxyphenyl)-3H-imidazo[4,5-b]pyridin-7-yl]phenyl]methyl) benzamide] | < 100 nM | < 100 nM | 1000 to 5000 nM
3 | CC(C)(C)c1nc(C(=O)NCc2ccc(-c3ccnc4[nH]c(-c5cnn(CCO)c5)nc34)cc2F)no1 [Example 70, 5-tert-Butyl-N-[(2-fluoro-4-[2-[1-(2-hydroxyethyl)-1H-pyrazol-4-yl]-3H-imidazo[4,5-b]pyridin-7-yl]phenyl)methyl]-1,2,4-oxadiazole-3-carboxamide] | < 100 nM | < 100 nM | 100 to 1000 nM
4 | CN(C)c1ccc(-c2nc3c(-c4cccc(N5CCOc6cc(C7CC7)cc(F)c6C5=O)c4CO)ccnc3[nH]2)nc1 [Example 41, 8-cyclopropyl-4-(3-[2-[5-(dimethylamino)pyridin-2-yl]-3H-imidazo[4,5-b]pyridin-7-yl]-2-(hydroxymethyl)phenyl)-6-fluoro-2,3,4,5-tetrahydro-1,4-benzoxazepin-5-one] | < 100 nM | < 100 nM | 1000 to 5000 nM
5 | Cn1cc(-c2nc3c(-c4ccc(CNC(=O)CCCC(C)(C)C)c(F)c4)ccnc3[nH]2)cn1 [Example 14, 5,5-Dimethyl-hexanoic acid 2-fluoro-4-[2-(1-methyl-1H-pyrazol-4-yl)-3H-imidazo[4,5-b]pyridin-7-yl]-benzylamide] | < 100 nM | < 100 nM | 1000 to 5000 nM
6 | CN1CC=C(c2nc3c(-c4ccc(CNC(=O)c5nnc(C(C)(C)C)o5)c(F)c4)ccnc3[nH]2)CC1 [Example 139, 5-tert-Butyl-[1,3,4]oxadiazole-2-carboxylic acid 2-fluoro-4-[2-(1-methyl-1,2,3,6-tetrahydro-pyridin-4-yl)-3H-imidazo[4,5-b]pyridin-7-yl]-benzylamide] | < 100 nM | < 100 nM | 1000 to 5000 nM
7 | Cn1cc(-c2nc3c(-c4ccc(CNC(=O)c5cc(C(C)(C)C)on5)c(F)c4)ccnc3[nH]2)cn1 [Example 67, 5-tert-Butyl-N-([2-fluoro-4-[2-(1-methyl-1H-pyrazol-4-yl)-3H-imidazo[4,5-b]pyridin-7-yl]phenyl]methyl)-1,2-oxazole-3-carboxamide] | < 100 nM | < 100 nM | < 100 nM
8 | CC(C)(C)c1nc(C(=O)NCc2ccc(-c3ccnc4[nH]c(-c5cnn(CCN)c5)nc34)cc2F)no1 [Example 72, N-[(4-[2-[1-(2-aminoethyl)-1H-pyrazol-4-yl]-3H-imidazo[4,5-b]pyridin-7-yl]-2-fluorophenyl)methyl]-5-tert-butyl-1,2,4-oxadiazole-3-carboxamide] | < 100 nM | 100 to 1000 nM | 100 to 1000 nM
9 | Cn1cc(-c2nc3c(-c4cccc(NC(=O)N5CC(OC(C)(C)C)C5)c4CO)ccnc3[nH]2)cn1 [Example 91, 3-(tert-Butoxy)-N-[2-(hydroxymethyl)-3-[2-(1-methyl-1H-pyrazol-4-yl)-3H-imidazo[4,5-b]pyridin-7-yl]phenyl]azetidine-1-carboxamide] | < 100 nM | < 100 nM | 100 to 1000 nM
10 | Cn1cc(-c2nc3c(-c4ccc(CN5CCOc6cc(C7CC7)cc(F)c6C5=O)c(F)c4)ccnc3[nH]2)cn1 [Example 34, 8-Cyclopropyl-6-fluoro-4-([2-fluoro-4-[2-(1-methyl-1H-pyrazol-4-yl)-3H-imidazo[4,5-b]pyridin-7-yl]phenyl]methyl)-2,3,4,5-tetrahydro-1,4-benzoxazepin-5-one] | < 100 nM | < 100 nM | 100 to 1000 nM
11 | Cn1cc(-c2nc3c(-c4ccc(CNC(=O)c5ccc(C6CC6)nc5)c(F)c4)ccnc3[nH]2)cn1 [Example 56, 6-Cyclopropyl-N-([2-fluoro-4-[2-(1-methyl-1H-pyrazol-4-yl)-3H-imidazo[4,5-b]pyridin-7-yl]phenyl]methyl)pyridine-3-carboxamide] | < 100 nM | < 100 nM | 1000 to 5000 nM
12 | CN(C)c1ccc(-c2nc3c(-c4ccc(C5(NC(=O)c6ccc(C(C)(C)C)cc6)CC5)cc4)ccnc3[nH]2)nc1 [Example 54, 4-tert-Butyl-N-[1-(4-[2-[5-(dimethylamino)pyridin-2-yl]-3H-imidazo[4,5-b]pyridin-7-yl]phenyl)cyclopropyl]benzamide] | < 100 nM | 100 to 1000 nM | 100 to 1000 nM
13 | Cn1cc(-c2nc3c(-c4ccc(C5(NC(=O)c6ccc(C(C)(C)C)cc6)CC5)cc4)ccnc3[nH]2)cn1 [Example 113, 4-tert-Butyl-N-(1-{4-[2-(1-methyl-1H-pyrazol-4-yl)-3H-imidazo[4,5-b]pyridin-7-yl]-phenyl}-cyclopropyl)-benzamide] | < 100 nM | < 100 nM | 100 to 1000 nM
14 | COc1ccc(-c2nc3c(-c4ccc(CNC(=O)c5ccc(C(C)(C)C)cc5)c(F)c4)ccnc3[nH]2)cc1 [Example 62, 4-tert-Butyl-N-([2-fluoro-4-[2-(4-methoxyphenyl)-3H-imidazo[4,5-b]pyridin-7-yl]phenyl]methyl) benzamide] | < 100 nM | < 100 nM | 100 to 1000 nM
15 | Cn1cc(-c2nc3nccc(-c4cccc(N5CCOc6cc(C7CC7)cc(F)c6C5=O)c4CO)c3[nH]2)cn1 [Example 42, 8-Cyclopropyl-6-fluoro-4-[2-(hydroxymethyl)-3-[2-(1-methyl-1H-pyrazol-4-yl)-1H-imidazo[4,5-b]pyridine-7-yl]phenyl]-2,3,4,5-tetrahydro-1,4-benzoxazepin-5-one] | < 100 nM | < 100 nM | 100 to 1000 nM
16 | CN(C)c1ccc(-c2nc3c(-c4ccc(CNC(=O)c5noc(C(C)(C)C)n5)c(F)c4)ccnc3[nH]2)cc1 [Example 145, 5-(tert-butyl)-N-(4-(2-(4-(dimethylamino)phenyl)-3H-imidazo[4,5-b]pyridin-7-yl)-2-fluorobenzyl)-1,2,4-oxadiazole-3-carboxamide] | < 100 nM | < 100 nM | < 100 nM
17 | Cn1cc(-c2nc3c(-c4ccnc(N5CCn6c(cc7c6CC(C)(C)C7)C5=O)c4CO)ccnc3[nH]2)cn1 [Example 11, 2-(3-(hydroxymethyl)-4-(2-(1-methyl-1H-pyrazol-4-yl)-3H-imidazo[4,5-b]pyridin-7-yl)pyridin-2-yl)-7,7-dimethyl-2,3,4,6,7,8-hexahydro-1H-cyclopenta[4,5]pyrrolo[1,2-a]pyrazin-1-one] | < 100 nM | < 100 nM | 100 to 1000 nM
18 | Cn1cc(-c2nc3c(-c4ccc(CNC(=O)c5nnc(C(C)(C)C)o5)cc4)ccnc3[nH]2)cn1 [Example 109, 5-tert-Butyl-[1,3,4]oxadiazole-2-carboxylic acid 4-[2-(1-methyl-1H-pyrazol-4-yl)-3H-imidazo[4,5-b]pyridin-7-yl]-benzylamide] | < 100 nM | 1000 to 5000 nM | 1000 to 5000 nM
19 | CN(C)c1ccc(-c2nc3c(-c4ccc(CNC(=O)c5nc(C(C)(C)C)no5)c(F)c4)ccnc3[nH]2)nc1 [Example 148, 3-(tert-butyl)-N-(4-(2-(5-(dimethylamino)pyridin-2-yl)-3H-imidazo[4,5-b]pyridin-7-yl)-2-fluorobenzyl)-1,2,4-oxadiazole-5-carboxamide] | < 100 nM | < 100 nM | < 100 nM
20 | CN(C)c1ccc(-c2nc3c(-c4ccc(CNC(=O)c5ccc(C(C)(C)C)cc5)c(F)c4)ccnc3[nH]2)nc1 [Example 89, 4-tert-Butyl-N-[(4-[2-[5-(dimethylamino)pyridin-2-yl]-3H-imidazo[4,5-b]pyridin-7-yl]-2-fluorophenyl)methyl]benzamide] | < 100 nM | < 100 nM | 1000 to 5000 nM
21 | Cn1cc(-c2nc3c(-c4ccc(CNC(=O)c5nnc(C(C)(C)C)o5)c(F)c4)ccnc3[nH]2)cn1 [Example 111, 5-tert-Butyl-[1,3,4]oxadiazole-2-carboxylic acid 2-fluoro-4-[2-(1-methyl-1H-pyrazol-4-yl)-3H-imidazo[4,5-b]pyridin-7-yl]-benzylamide] | < 100 nM | < 100 nM | 100 to 1000 nM
22 | Cn1cc(-c2nc3c(-c4ccc(C5(NC(=O)N6CC(OC(C)(C)C)C6)CC5)c(F)c4)ccnc3[nH]2)cn1 [Example 52, 3-(tert-Butoxy)-N-(1-[2-fluoro-4-[2-(1-methyl-1H-pyrazol-4-yl)-3H-imidazo[4,5-b]pyridin-7-yl]phenyl]cyclopropyl)azetidine-1-carboxamide] | < 100 nM | < 100 nM | 100 to 1000 nM
